The text below walks through data of patent publication US20260062422A1 (Halda Therapeutics OpCo, Inc., priority 2022, published 2026).

One experiment deals with T1, androgen receptor (Homo sapiens, UniProt P10275).
T1 sequence (P10275 1-920 T878A): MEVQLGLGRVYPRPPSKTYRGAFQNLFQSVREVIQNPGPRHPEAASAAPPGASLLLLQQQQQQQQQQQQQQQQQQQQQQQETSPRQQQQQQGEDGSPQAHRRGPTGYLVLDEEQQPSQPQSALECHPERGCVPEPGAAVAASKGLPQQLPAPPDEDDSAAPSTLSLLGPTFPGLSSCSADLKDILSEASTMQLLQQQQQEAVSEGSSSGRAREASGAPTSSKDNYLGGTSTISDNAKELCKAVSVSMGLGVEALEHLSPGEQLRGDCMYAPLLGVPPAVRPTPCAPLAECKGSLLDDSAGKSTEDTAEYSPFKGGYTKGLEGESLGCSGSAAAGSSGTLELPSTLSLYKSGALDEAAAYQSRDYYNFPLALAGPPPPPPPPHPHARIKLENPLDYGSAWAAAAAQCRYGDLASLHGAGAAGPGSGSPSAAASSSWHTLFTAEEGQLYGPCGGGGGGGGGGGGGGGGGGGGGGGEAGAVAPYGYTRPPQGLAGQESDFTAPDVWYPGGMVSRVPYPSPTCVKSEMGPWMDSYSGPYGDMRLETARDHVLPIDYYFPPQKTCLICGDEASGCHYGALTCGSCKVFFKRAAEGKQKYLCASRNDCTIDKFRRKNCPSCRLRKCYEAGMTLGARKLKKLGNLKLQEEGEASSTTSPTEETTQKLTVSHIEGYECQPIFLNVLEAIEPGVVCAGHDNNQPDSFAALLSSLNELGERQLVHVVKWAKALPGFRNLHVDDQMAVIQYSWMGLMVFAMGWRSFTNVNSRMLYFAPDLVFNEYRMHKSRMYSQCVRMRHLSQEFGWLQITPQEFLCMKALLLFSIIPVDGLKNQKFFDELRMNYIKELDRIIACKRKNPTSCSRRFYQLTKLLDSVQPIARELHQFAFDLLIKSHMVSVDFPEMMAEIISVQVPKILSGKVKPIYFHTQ
In words: Assay for binding affinity to androgen receptor ([3H]methyltrienolone radioligand, cell cytosol). Particulars: 1 nM [3H]methyltrienolone, 24 hours at 4° C., Table 5. In a few lines: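 Competition binding in cell cytosol ([…]) with 1 nM [3H]methyltrienolone, 24 hours at 4° C, in pH 7.4 Hepes-Tris buffer with 5 μM triamcinolone acetonide; nonspecific binding defined by 1 μM testosterone. Filtration and scintillation counting; values reported as % inhibition of specific binding.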

Experiment [1] in a line: Cellular growth inhibition, T-Rex 293 SC cells with doxycycline (progesterone receptor isoform B induced), Example 45. The format is cell-based. Particulars: progesterone receptor isoform B induced with 10 ng/mL doxycycline, 72 hours, CellTiter-Glo 2.0, Table 11. Here is the method:
(§1) The following types of cells were prepared for this experiment: (i) a T-Rex 293 cell line having increased expression of progesterone receptor isoform B protein due to exposure to doxycycline and (ii) a T-Rex 293 cell line lacking increased expression of progesterone receptor isoform B protein. Ability of the test compounds to inhibit proliferation of the foregoing cell types was evaluated according to the procedures set forth below.
(§2) The doxycycline-inducible progesterone receptor isoform B protein expressing cell line was established using the following protocol: T-Rex 293 cells were purchased from Invitrogen (Cat #R71007) and transfected using Lipofectamine 2000 with the wild-type progesterone receptor B protein sequence cloned into the pcDNA4/TO vector. Transfected cells were selected using 400 μg/mL Zeocin (Invitrogen Cat #R25001). Following selection, single clones were raised and maintained in Dulbecco's Modified Eagle Medium (DMEM) supplemented with 10% w/w Tetracycline-free fetal bovine serum (FBS) and 250 μg/mL Zeocin. Clones were analyzed for expression of progesterone receptor isoform B protein in the presence and absence of 10 ng/mL doxycycline (Sigma Cat #D9891), and a single doxycycline-inducible clone (hereinafter “SC”) was selected for use in downstream assays.
(§3) The SC cells were seeded on poly-D-lysine coated, black clear-bottom 384-well plates at 2500/well, in 25 μL Phenol Red Free Dulbecco's Modified Eagle Medium (DMEM) supplemented with 10% w/w charcoal-dextran treated fetal bovine serum (FBS) and 1% w/w pen-strep, with or without 10 ng/mL doxycycline. Pen-Strep is a commercially available mixture of penicillin G and streptomycin, which is used in mammalian cell culture media to prevent bacterial contamination. Phenol Red Free Dulbecco's Modified Eagle Medium (DMEM) supplemented with 10% w/w charcoal-dextran treated fetal bovine serum (FBS) and 1% w/w pen-strep, with or without 10 ng/mL doxycycline is herein referred to as Treatment Medium. Following seeding of cells in the plates, the plates were spun at 300×g for 30 seconds, then equilibrated to room temperature for 30 minutes, and then deposited in a humidified tissue culture incubator maintained at 37° C. with 5% CO2.
(§4) At 24 hours after seeding of the cells, dilutions of test compound were prepared in DMSO and dissolved in Treatment Medium, to achieve a final DMSO concentration of 0.5% w/w, thereby providing the Test Compound Solution. A 25 μL aliquot of the Test Compound Solution was added to cells in the well plates. An equal volume of a solution containing DMSO and Treatment Medium was used as a negative control. Following treatment of cells with Test Compound Solution or said equal volume of a solution containing DMSO and Treatment Medium, the plates were spun at 300×g for 30 seconds, and then left in an incubator for 72 hours.
(§5) At the end of the treatment duration, cell viability was quantified with CellTiter-Glo 2.0 reagent (Promega Cat #G9243). For this purpose, plates were equilibrated to room temperature for 30 minutes, and then 25 μL of CellTiter-Glo 2.0 reagent was added to cells in the plate wells. Plates were then agitated on a shaker for two minutes at 500 rpm and subsequently incubated at room temperature for 10 minutes. Following incubation, the plates were spun at 3000×g for 30 seconds, then sealed with an optical adhesive cover, and luminescence readings were measured with an EnVision Plate Reader (Perkin Elmer).
(§6) Data was normalized using zero luminescence for baseline. A four-parameter non-linear regression curve fit was applied to dose-response data in GraphPad Prism data analysis software to determine the half-maximal growth inhibitory concentration (GI50) for each test compound.

Experiment [2] deals with T-Rex 293 cell line SC cells lacking increased expression of progesterone receptor isoform B protein. In words: Cellular growth inhibition, T-Rex 293 SC cells without doxycycline, Example 45. The format is cell-based. Particulars: T-Rex 293 SC cells not exposed to doxycycline, 72 hours treatment, CellTiter-Glo 2.0. Here is the method:
as §1, §2, §3, §4, §5, §6
(ATP-based viability assays read luminescence as a measure of living cells.)

pKd: −log10 of the molar value.

The term pKd denotes the Kd on a negative log10 scale, so that one unit is a factor of ten. High values mean a small Kd, low ones a large Kd. In general, GI50 refers to the concentration at which growth is held to half of that of the control. Low values mean greater sensitivity of the cells, high ones lower sensitivity of the cells. The compound `Cc1sc2c(c1C)C(c1ccc(OCCOC3CCN(c4ncc(C(=O)N[C@H]5C(C)(C)[C@H](Oc6ccc(C#N)c(Cl)c6)C5(C)C)cn4)CC3)cc1)=N[C@@H](CC(=O)O)c1nnc(C)n1-2` [Compound I-38] showed a negative logarithm of the Kd (pKd) at androgen receptor greater than 7.30. Besides, the GI50 in experiment [1] and in experiment [2] was greater than 3000 nM each time.

`Cc1sc2c(c1C)C(c1ccc(OC3CC4(CCN(c5ncc(C(=O)N[C@H]6C(C)(C)[C@H](Oc7ccc(C#N)c(Cl)c7)C6(C)C)cn5)CC4)C3)cc1)=N[C@@H](Cc1ncco1)c1nnc(C)n1-2` [Compound I-49, N-[3-(3-chloro-4-cyano-phenoxy)-2,2,4,4-tetramethyl-cyclobutyl]-2-[2-[4-[(9S)-4,5,13-trimethyl-9-(oxazol-2-ylmethyl)-3-thia-1,8,11,12-tetrazatricyclo[8.3.0.02,6]trideca-2(6),4,7,10,12-pentaen-7-yl]phenoxy]-7-azaspiro[3.5]nonan-7-yl]pyrimidine-5-carboxamide]: the GI50 in experiment [1] was less than 500 nM; in experiment [2], 500 to 1500 nM.

Turning to `Cc1sc2c(c1C)C(c1ccc(CC3CC(C4CCN(c5ncc(C(=O)N[C@H]6C(C)(C)[C@H](Oc7ccc(C#N)c(Cl)c7)C6(C)C)cn5)CC4)C3)cc1)=NC(Cc1ncco1)c1nnc(C)n1-2` (stereo partly shown) [Compound I-136], the GI50 in experiment [1] is less than 500 nM; in experiment [2] it was greater than 3000 nM.

In the case of `CCNC(=O)C[C@@H]1N=C(c2ccc(OCCOC3CCN(c4ncc(C(=O)N[C@H]5C(C)(C)[C@H](Oc6ccc(C#N)c(Cl)c6)C5(C)C)cn4)CC3)cc2)c2c(sc(C)c2C)-n2c(C)nnc21` [Compound I-60, N-((1r,3r)-3-(3-chloro-4-cyanophenoxy)-2,2,4,4-tetramethylcyclobutyl)-2-(4-(2-(4-((S)-6-(2-(ethylamino)-2-oxoethyl)-2,3,9-trimethyl-6H-thieno[3,2-f][1,2,4]triazolo[4,3-a][1,4]diazepin-4-yl)phenoxy)ethoxy)piperidin-1-yl)pyrimidine-5-carboxamide], the 50% growth inhibitory concentration (GI50) in experiment [1] and in experiment [2] was less than 500 nM throughout.

On to `CCNC(=O)C[C@@H]1N=C(c2ccc(Oc3ncc(C(=O)N[C@H]4C(C)(C)[C@H](Oc5ccc(C#N)c(Cl)c5)C4(C)C)cn3)cc2)c2c(sc(C)c2C)-n2c(C)nnc21` [Compound I-84], for which the GI50 was less than 500 nM in experiment [1] and 500 to 1500 nM in experiment [2].

As for `Cc1sc2c(c1C)C(c1ccc(CCCOC3CCN(c4ncc(C(=O)N[C@H]5C(C)(C)[C@H](Oc6ccc(C#N)c(Cl)c6)C5(C)C)cn4)CC3)cc1)=N[C@@H](C)c1nnc(C)n1-2` [Compound I-228, N-[3-(3-chloro-4-cyano-phenoxy)-2,2,4,4-tetramethyl-cyclobutyl]-2-[4-[3-[4-[(9S)-4,5,9,13-tetramethyl-3-thia-1,8,11,12-tetrazatricyclo [8.3.0.02,6]trideca-2(6),4,7,10,12-pentaen-7-yl]phenyl]propoxy]-1-piperidyl]pyrimidine-5-carboxamide], the GI50 in experiment [1] was less than 500 nM; in experiment [2] it was 500 to 1500 nM.

Take `Cc1sc2c(c1C)C(c1ccc(C#CCN3CCN(c4ncc(C(=O)N[C@H]5C(C)(C)[C@H](Oc6ccc(C#N)c(Cl)c6)C5(C)C)cn4)CC3)cc1)=N[C@@H](CC(=O)OC(C)(C)C)c1nnc(C)n1-2` [Compound I-55]: the concentration for 50% growth inhibition (GI50) was less than 500 nM in experiment [1] and 500 to 1500 nM in experiment [2].

As for `Cc1sc2c(c1C)C(c1ccc(O[C@H]3CC[C@@]4(CCCN(c5ncc(C(=O)N[C@H]6C(C)(C)[C@H](Oc7ccc(C#N)c(Cl)c7)C6(C)C)cn5)C4)CC3)cc1)=N[C@@H](Cc1ncco1)c1nnc(C)n1-2` [Compound I-172], the figures for the GI50 in experiment [1] and in experiment [2] were less than 500 nM and 500 to 1500 nM, respectively.

Consider `CCNC(=O)C[C@@H]1N=C(c2ccc(OC3CCN(c4ncc(C(=O)N[C@H]5C(C)(C)[C@H](Oc6ccc(C#N)c(Cl)c6)C5(C)C)cn4)CC3)cc2)c2c(sc(C)c2C)-n2c(C)nnc21` [Compound I-61], for which the GI50 in experiment [1] was less than 500 nM; in experiment [2], 500 to 1500 nM.

With `CCNC(=O)C[C@@H]1N=C(c2ccc(N(C)C3CC(OC4CCN(c5ncc(C(=O)N[C@H]6C(C)(C)[C@H](Oc7ccc(C#N)c(Cl)c7)C6(C)C)cn5)CC4)C3)cc2)c2c(sc(C)c2C)-n2c(C)nnc21` (stereo partly shown) [Compound I-130], the GI50 in experiment [1] and in experiment [2] was less than 500 nM each time.

In the case of `Cc1sc2c(c1C)C(c1ccc(C3CC3C3CC4(CCN(c5ncc(C(=O)N[C@H]6C(C)(C)[C@H](Oc7ccc(C#N)c(Cl)c7)C6(C)C)cn5)CC4)C3)cc1)=N[C@@H](Cc1ncco1)c1nnc(C)n1-2` (stereo partly shown) [Compound I-237], the results for the 50% growth inhibitory concentration (GI50) in experiment [1] and in experiment [2] were less than 500 nM and greater than 3000 nM, respectively.

As to `Cc1sc2c(c1C)C(c1ccc(C#CC3CC4(CCN(c5ncc(C(=O)N[C@H]6C(C)(C)[C@H](Oc7ccc(C#N)c(Cl)c7)C6(C)C)cn5)CC4)C3)cc1)=N[C@@H](Cc1ncco1)c1nnc(C)n1-2` [Compound I-267], the GI50 in experiment [1] was less than 500 nM; in experiment [2] it was 500 to 1500 nM.

As for `Cc1sc2c(c1C)C(c1ccc(OCCOC3CCN(c4ncc(C(=O)N[C@H]5C(C)(C)[C@H](Oc6ccc(C#N)c(Cl)c6)C5(C)C)cn4)CC3)cc1)=N[C@@H](CC(=O)OC(C)(C)C)c1nnc(C)n1-2` [Compound I-235, tert-butyl 2-((S)-4-(4-(2-((1-(5-(((1r,3r)-3-(3-chloro-4-cyanophenoxy)-2,2,4,4-tetramethylcyclobutyl)carbamoyl)pyrimidin-2-yl)piperidin-4-yl)oxy)ethoxy)phenyl)-2,3,9-trimethyl-6H-thieno[3,2-f][1,2,4]triazolo[4,3-a][1,4]diazepin-6-yl)acetate], the GI50 in experiment [1] and in experiment [2] was less than 500 nM each time.

As to `CCNC(=O)C[C@@H]1N=C(c2ccc(N(C3CC3)C3CN(CC4CCN(c5ncc(C(=O)N[C@H]6C(C)(C)[C@H](Oc7ccc(C#N)c(Cl)c7)C6(C)C)cn5)CC4)C3)cc2)c2c(sc(C)c2C)-n2c(C)nnc21` [Compound I-129], the GI50 is less than 500 nM in experiment [1] and 500 to 1500 nM in experiment [2].

Turning to `Cc1sc2c(c1C)C(c1ccc(CC3CN(CC4CCN(c5ncc(C(=O)N[C@H]6C(C)(C)[C@H](Oc7ccc(C#N)c(Cl)c7)C6(C)C)cn5)CC4)C3)cc1)=N[C@@H](Cc1ncco1)c1nnc(C)n1-2` [Compound I-153], the GI50 in experiment [1] and in experiment [2] was less than 500 nM throughout.
